Legend:
Settings in all cases: incubation time: 72 h
BT-474 [1] = assay: normalised response (% of control), CellTox Green; higher = less cell death (100 = DMSO, 0 = benzethonium chloride kill control)
Outline: (§1)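 CellTox Green fluorescence (485/520 nm) and, after 10 min at room temperature, CellTiter-Glo luminescence were read from breast cancer cell lines incubated 72 h in 384-well plates. Cells were seeded as 20 µl suspension onto compound at 5 concentrations in 10-fold steps over a 10,000-fold range chosen per compound. Each plate was normalised to 0.1 % DMSO (100) and a positive kill control (0). Values are normalised signals, one per concentration.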

BT-549 [2] = assay: as above
Outline: as §1

CAL-120 [3] = assay: as above
Outline: as §1

CAL-148 [4] = assay: as above
Outline: as §1

CAL-51 [5] = assay: as above
Outline: as §1

CAL-85-1 [6] = assay: as above
Outline: as §1

DU-4475 [7] = assay: as above
Outline: as §1

HCC1599 [8] = assay: as above
Outline: as §1

HCC1937 [9] = assay: as above
Outline: as §1

HDQ-P1 [10] = assay: as above
Outline: as §1

Hs578T [11] = assay: as above
Outline: as §1

MCF-10A [12] = assay: as above
Outline: as §1

MDA-MB-231 [13] = assay: as above
Outline: as §1

MDA-MB-436 [14] = assay: as above
Outline: as §1

MDA-MB-453 [15] = assay: as above
Outline: as §1

MFM-223 [16] = assay: as above
Outline: as §1

BT-474 [17] = assay: normalised response (% of control), CellTiter-Glo; higher = more viable cells (100 = DMSO, 0 = benzethonium chloride kill control)
Experimental: (§2)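 DSRT, 72 h incubation, CellTox Green / CellTiter-Glo readout. Signal is normalised to DMSO and benzethonium chloride controls. Value is the normalised response at dose 3.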

BT-549 [18] = assay: as above
Experimental: as §2

CAL-120 [19] = assay: as above
Experimental: as §2

CAL-148 [20] = assay: as above
Experimental: as §2

CAL-51 [21] = assay: as above
Experimental: as §2

CAL-85-1 [22] = assay: as above
Experimental: as §2

DU-4475 [23] = assay: as above
Experimental: as §2

HCC1143 [24] = assay: as above
Experimental: as §2

HCC1599 [25] = assay: as above
Experimental: as §2

HCC1937 [26] = assay: as above
Experimental: as §2

HDQ-P1 [27] = assay: as above
Experimental: as §2

Hs578T [28] = assay: as above
Experimental: as §2

MCF-10A [29] = assay: as above
Experimental: as §2

MDA-MB-231 [30] = assay: as above
Experimental: as §2

MDA-MB-436 [31] = assay: as above
Experimental: as §2

MDA-MB-453 [32] = assay: as above
Experimental: as §2

MDA-MB-468 [33] = assay: as above
Experimental: as §2

MFM-223 [34] = assay: as above
Experimental: as §2

SK-BR-3 = assay: as above
Experimental: as §2

HCC1143 [35] = assay: normalised response (% of control), CellTox Green; higher = less cell death (100 = DMSO, 0 = benzethonium chloride kill control)
Outline: as §1

MDA-MB-468 [36] = assay: as above
Outline: as §1

SMILES: Cc1ccc(C(=O)N(CCCN)[C@@H](c2oc3cc(Cl)ccc3c(=O)c2Cc2ccccc2)C(C)C)cc1 (1 nM)
- normalised response (BT-474 [1]): 101%
- normalised response (BT-549 [2]): 93.7%
- normalised response (CAL-120 [3]): 83.7%
- normalised response (CAL-148 [4]): 93.5%
- normalised response (CAL-51 [5]): 74.1%
- normalised response (CAL-85-1 [6]): 113%
- normalised response (DU-4475 [7]): 103%
- normalised response (HCC1599 [8]): 88.1%
- normalised response (HCC1937 [9]): 97%
- normalised response (HDQ-P1 [10]): 100%
- normalised response (Hs578T [11]): 104%
- normalised response (MCF-10A [12]): 107%
- normalised response (MDA-MB-231 [13]): 102%
- normalised response (MDA-MB-436 [14]): 108%
- normalised response (MDA-MB-453 [15]): 104%
- normalised response (MFM-223 [16]): 100%
- normalised response (BT-474 [17]): 95%
- normalised response (BT-549 [18]): 101%
- normalised response (CAL-120 [19]): 102%
- normalised response (CAL-148 [20]): 84.9%
- normalised response (CAL-51 [21]): 65.8%
- normalised response (CAL-85-1 [22]): 107%
- normalised response (DU-4475 [23]): 96.6%
- normalised response (HCC1143 [24]): 103%
- normalised response (HCC1599 [25]): 104%
- normalised response (HCC1937 [26]): 94.3%
- normalised response (HDQ-P1 [27]): 105%
- normalised response (Hs578T [28]): 94.8%
- normalised response (MCF-10A [29]): 97%
- normalised response (MDA-MB-231 [30]): 103%
- normalised response (MDA-MB-436 [31]): 105%
- normalised response (MDA-MB-453 [32]): 91.4%
- normalised response (MDA-MB-468 [33]): 93.9%
- normalised response (MFM-223 [34]): 91.4%
- normalised response (SK-BR-3): 88.2%

SMILES: NC(=O)Nc1cc(-c2cccc(F)c2)sc1C(=O)N[C@H]1CCCNC1 [AZD7762] (10 nM)
- normalised response (BT-474 [1]): 101%
- normalised response (BT-549 [2]): 96.5%
- normalised response (CAL-120 [3]): 99.8%
- normalised response (CAL-148 [4]): 96%
- normalised response (CAL-51 [5]): 113%
- normalised response (CAL-85-1 [6]): 100%
- normalised response (DU-4475 [7]): 99.5%
- normalised response (HCC1143 [35]): 105%
- normalised response (HCC1599 [8]): 116%
- normalised response (HCC1937 [9]): 107%
- normalised response (HDQ-P1 [10]): 108%
- normalised response (MCF-10A [12]): 102%
- normalised response (MDA-MB-231 [13]): 104%
- normalised response (MDA-MB-436 [14]): 91%
- normalised response (MDA-MB-453 [15]): 105%
- normalised response (MDA-MB-468 [36]): 104%
- normalised response (MFM-223 [16]): 104%
- normalised response (BT-474 [17]): 105%
- normalised response (BT-549 [18]): 101%
- normalised response (CAL-120 [19]): 106%
- normalised response (CAL-148 [20]): 106%
- normalised response (CAL-51 [21]): 106%
- normalised response (CAL-85-1 [22]): 97.5%
- normalised response (DU-4475 [23]): 102%
- normalised response (HCC1143 [24]): 110%
- normalised response (HCC1599 [25]): 91.3%
- normalised response (HCC1937 [26]): 95%
- normalised response (HDQ-P1 [27]): 94%
- normalised response (Hs578T [28]): 94.5%
- normalised response (MCF-10A [29]): 99.5%
- normalised response (MDA-MB-231 [30]): 104%
- normalised response (MDA-MB-436 [31]): 104%
- normalised response (MDA-MB-453 [32]): 81.9%
- normalised response (MDA-MB-468 [33]): 102%
- normalised response (MFM-223 [34]): 103%
- normalised response (SK-BR-3): 103%

SMILES: CO[C@H]1/C=C\C=C(/C)C(=O)NC2=CC(=O)C(NCCN(C)C)=C(C[C@@H](C)C[C@H](OC)[C@H](O)[C@@H](C)/C=C(\C)[C@@H]1OC(N)=O)C2=O [Alvespimycin] (10 nM)
- normalised response (BT-474 [1]): 93.9%
- normalised response (BT-549 [2]): 89.8%
- normalised response (CAL-120 [3]): 97.3%
- normalised response (CAL-148 [4]): 108%
- normalised response (CAL-51 [5]): 110%
- normalised response (CAL-85-1 [6]): 95.8%
- normalised response (DU-4475 [7]): 101%
- normalised response (HCC1143 [35]): 105%
- normalised response (HCC1599 [8]): 111%
- normalised response (HCC1937 [9]): 118%
- normalised response (HDQ-P1 [10]): 90.8%
- normalised response (MCF-10A [12]): 94.8%
- normalised response (MDA-MB-231 [13]): 85.3%
- normalised response (MDA-MB-436 [14]): 89.8%
- normalised response (MDA-MB-453 [15]): 96.9%
- normalised response (MDA-MB-468 [36]): 116%
- normalised response (MFM-223 [16]): 104%
- normalised response (BT-474 [17]): 104%
- normalised response (BT-549 [18]): 63.4%
- normalised response (CAL-120 [19]): 106%
- normalised response (CAL-148 [20]): 110%
- normalised response (CAL-51 [21]): 101%
- normalised response (CAL-85-1 [22]): 104%
- normalised response (DU-4475 [23]): 103%
- normalised response (HCC1143 [24]): 99%
- normalised response (HCC1599 [25]): 106%
- normalised response (HCC1937 [26]): 94.8%
- normalised response (HDQ-P1 [27]): 89.5%
- normalised response (Hs578T [28]): 103%
- normalised response (MCF-10A [29]): 115%
- normalised response (MDA-MB-231 [30]): 106%
- normalised response (MDA-MB-436 [31]): 76.8%
- normalised response (MDA-MB-453 [32]): 89.1%
- normalised response (MDA-MB-468 [33]): 94.8%
- normalised response (MFM-223 [34]): 88.1%
- normalised response (SK-BR-3): 72.3%

SMILES: N.N.[Cl][Pt][Cl] [Cisplatin] (10 nM)
- normalised response (BT-474 [1]): 104%
- normalised response (BT-549 [2]): 115%
- normalised response (CAL-120 [3]): 108%
- normalised response (CAL-148 [4]): 103%
- normalised response (CAL-51 [5]): 94.8%
- normalised response (CAL-85-1 [6]): 112%
- normalised response (DU-4475 [7]): 114%
- normalised response (HCC1143 [35]): 109%
- normalised response (HCC1599 [8]): 102%
- normalised response (HCC1937 [9]): 90.6%
- normalised response (HDQ-P1 [10]): 109%
- normalised response (Hs578T [11]): 78.4%
- normalised response (MCF-10A [12]): 115%
- normalised response (MDA-MB-231 [13]): 114%
- normalised response (MDA-MB-453 [15]): 106%
- normalised response (MFM-223 [16]): 105%
- normalised response (BT-474 [17]): 102%
- normalised response (BT-549 [18]): 107%
- normalised response (CAL-120 [19]): 108%
- normalised response (CAL-148 [20]): 82.8%
- normalised response (CAL-51 [21]): 90.6%
- normalised response (CAL-85-1 [22]): 94.7%
- normalised response (DU-4475 [23]): 96.6%
- normalised response (HCC1143 [24]): 103%
- normalised response (HCC1599 [25]): 104%
- normalised response (HCC1937 [26]): 97.7%
- normalised response (HDQ-P1 [27]): 101%
- normalised response (Hs578T [28]): 96.4%
- normalised response (MCF-10A [29]): 106%
- normalised response (MDA-MB-231 [30]): 103%
- normalised response (MDA-MB-436 [31]): 103%
- normalised response (MDA-MB-453 [32]): 90.5%
- normalised response (MDA-MB-468 [33]): 85.3%
- normalised response (MFM-223 [34]): 99.8%
- normalised response (SK-BR-3): 93.5%

From the supplement of paper PMC4862054
